In ChEMBL document CHEMBL1201862, “PubChem BioAssay data set” (2004):
Activity calls are given as the source filed them.

What was measured:
[1] = target: T1, Probable nicotinate-nucleotide adenylyltransferase (Staphylococcus aureus (strain N315), UniProt P65502); format: functional, Staphylococcus aureus subsp. aureus N315;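 as to IC50 Mean: confirmatory dose-response retesting of NadD inhibitor hits first found in an ultra-high-throughput screen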
[2] = target: Induced myeloid leukemia cell differentiation protein Mcl-1 (Homo sapiens, UniProt Q07820); format: functional
Sequence of Induced myeloid leukemia cell differentiation protein Mcl-1 (Q07820 whole entry): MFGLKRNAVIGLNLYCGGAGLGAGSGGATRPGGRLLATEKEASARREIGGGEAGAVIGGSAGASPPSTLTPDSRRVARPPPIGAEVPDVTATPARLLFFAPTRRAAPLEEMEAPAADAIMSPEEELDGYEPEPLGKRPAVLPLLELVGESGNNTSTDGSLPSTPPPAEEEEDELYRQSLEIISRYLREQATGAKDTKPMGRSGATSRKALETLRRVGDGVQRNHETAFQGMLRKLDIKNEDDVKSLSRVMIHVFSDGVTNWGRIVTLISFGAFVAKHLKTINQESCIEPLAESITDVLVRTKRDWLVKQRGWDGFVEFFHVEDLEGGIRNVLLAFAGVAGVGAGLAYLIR

[3] = target: T1, Probable nicotinate-nucleotide adenylyltransferase; format: functional, Staphylococcus aureus subsp. aureus N315; settings: read-out: IC50_Mean
[4] = target: Tyrosine-protein phosphatase non-receptor type 5 (Homo sapiens, UniProt P54829); test: PTPN5 enzyme inhibition – biochemical, fluorescence intensity, uHTS hits, confirmation (AID 602372); format: functional; settings: read-out: IC50_Mean
Sequence of Tyrosine-protein phosphatase non-receptor type 5 (P54829 whole entry): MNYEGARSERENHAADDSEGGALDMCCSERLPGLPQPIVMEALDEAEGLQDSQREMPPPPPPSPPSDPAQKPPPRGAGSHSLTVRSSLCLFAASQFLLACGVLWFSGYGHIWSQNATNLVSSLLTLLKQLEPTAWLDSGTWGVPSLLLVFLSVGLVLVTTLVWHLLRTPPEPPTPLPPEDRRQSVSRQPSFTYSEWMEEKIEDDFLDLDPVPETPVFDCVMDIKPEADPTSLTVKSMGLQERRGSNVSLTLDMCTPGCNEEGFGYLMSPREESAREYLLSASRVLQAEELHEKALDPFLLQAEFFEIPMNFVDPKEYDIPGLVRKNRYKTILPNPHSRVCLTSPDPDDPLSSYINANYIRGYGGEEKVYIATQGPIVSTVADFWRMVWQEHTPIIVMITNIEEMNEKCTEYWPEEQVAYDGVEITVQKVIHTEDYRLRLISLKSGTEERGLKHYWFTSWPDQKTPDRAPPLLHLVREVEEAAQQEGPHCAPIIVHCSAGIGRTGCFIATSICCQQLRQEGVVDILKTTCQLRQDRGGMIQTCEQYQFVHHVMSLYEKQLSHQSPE

[5] = target: Dual specificity protein phosphatase 3 (Homo sapiens, UniProt P51452); test: VHR phosphatase inhibition, dose response, selectivity assay for STEP inhibitor project, biochemical (AID 602374); format: functional; settings: read-out: IC50_Mean
[6] = target: Tyrosine-protein phosphatase non-receptor type 11 (Homo sapiens, UniProt Q06124); test: PTPN11 enzyme inhibitors – biochemical, selectivity assay for STEP inhibitor project, dose response (AID 602367); format: functional; settings: read-out: IC50_Mean
Sequence of Tyrosine-protein phosphatase non-receptor type 11 (Q06124 whole entry): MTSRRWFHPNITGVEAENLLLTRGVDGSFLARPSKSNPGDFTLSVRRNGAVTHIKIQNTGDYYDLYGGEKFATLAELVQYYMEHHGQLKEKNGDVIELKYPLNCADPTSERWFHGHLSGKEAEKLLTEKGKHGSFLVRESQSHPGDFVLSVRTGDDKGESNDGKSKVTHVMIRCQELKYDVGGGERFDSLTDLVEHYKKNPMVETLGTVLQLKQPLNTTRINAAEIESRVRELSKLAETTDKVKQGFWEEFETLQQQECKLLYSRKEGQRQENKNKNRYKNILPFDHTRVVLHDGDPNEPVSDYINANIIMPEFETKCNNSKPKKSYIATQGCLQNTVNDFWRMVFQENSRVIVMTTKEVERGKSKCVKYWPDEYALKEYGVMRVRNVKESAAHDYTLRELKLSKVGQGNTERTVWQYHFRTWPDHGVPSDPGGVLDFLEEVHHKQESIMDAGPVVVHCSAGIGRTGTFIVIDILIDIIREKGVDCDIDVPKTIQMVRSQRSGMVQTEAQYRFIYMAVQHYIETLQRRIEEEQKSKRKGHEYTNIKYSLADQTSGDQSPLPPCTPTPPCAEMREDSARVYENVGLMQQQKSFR

Escherichia coli = test: microbe, parasite or virus in culture
[7] = bead-based luminescence quenchers, dual-tagged ARNT – biochemical, AlphaScreen, cherry-pick, artefact control for ARNT-TACC3 interaction inhibitor project, dose response (AID 651705); format: functional;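 also: AlphaScreen bead proximity signal that flags compounds interfering with the detection technology; potency reflects signal decrease which marks the compound as an assay artifact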
Cytochrome P450 3A4 = Cytochrome P450 3A4 (Homo sapiens, UniProt P08684);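 also: CYP3A4 tested as one member of a cytochrome P450 panel screen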
[8] = target: T2, Low molecular weight phosphotyrosine protein phosphatase (Homo sapiens, UniProt P24666); format: functional; settings: read-out: IC50_Mean
T2 sequence (P24666 whole entry): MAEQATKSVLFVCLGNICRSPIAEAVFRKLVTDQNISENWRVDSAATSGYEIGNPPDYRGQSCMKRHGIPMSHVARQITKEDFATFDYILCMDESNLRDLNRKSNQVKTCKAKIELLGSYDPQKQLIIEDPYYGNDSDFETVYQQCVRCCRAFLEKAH

[9] = target: T2, Low molecular weight phosphotyrosine protein phosphatase; format: functional; settings: read-out: IC50_Mean; remark: listed apart in the source
[10] = target: Adenosylmethionine-8-amino-7-oxononanoate aminotransferase (Mycobacterium tuberculosis, UniProt P9WQ81); test: Mycobacterium tuberculosis BioA enzyme inhibitor Measured in Biochemical System Using Plate Reader - 2163-02_Inhibitor_Dose_CherryPick_Activity.; format: functional, Mycobacterium tuberculosis UT205
[11] = reduction of Shn3 3'UTR-driven luciferase in osteoblasts – cell-based, Clone20 osteoblasts, firefly luciferase, cherry-picked, dose response (AID 624132); format: functional;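 also: firefly luciferase luminescence from reporter carrying the Shn3 3'UTR in osteoblasts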
[12] = loss of viability in HepG2 cells – cell-based, CellTiter-Glo, cherry-picked, cytotoxicity control for Shn3 inhibitor project, dose response (AID 624134); format: functional
Vero = test: viability of Vero cells under compound – cytotoxicity control for flavivirus capping enzyme inhibitors (AID 588742); format: functional; settings: Chlorocebus sabaeus
[13] = non-specific 3'UTR reporter inhibition in Clone20-Shn3RL – cell-based, Renilla luciferase, cherry-picked, counter-screen for Shn3 inhibitor project, dose response (AID 624133); format: functional
Protein RecA = target: T3, Protein RecA (Mycobacterium tuberculosis, UniProt P9WHJ3); test: Fluorescence Cell-Free Homogeneous Dose Retest to Identify Inhibitors of RecA-Intein Splicing Activity. [Related pubchem assays (depositor defined):AID2097, AID2223, AID489010, AID492950]; format: functional
T3 sequence (P9WHJ3 whole entry): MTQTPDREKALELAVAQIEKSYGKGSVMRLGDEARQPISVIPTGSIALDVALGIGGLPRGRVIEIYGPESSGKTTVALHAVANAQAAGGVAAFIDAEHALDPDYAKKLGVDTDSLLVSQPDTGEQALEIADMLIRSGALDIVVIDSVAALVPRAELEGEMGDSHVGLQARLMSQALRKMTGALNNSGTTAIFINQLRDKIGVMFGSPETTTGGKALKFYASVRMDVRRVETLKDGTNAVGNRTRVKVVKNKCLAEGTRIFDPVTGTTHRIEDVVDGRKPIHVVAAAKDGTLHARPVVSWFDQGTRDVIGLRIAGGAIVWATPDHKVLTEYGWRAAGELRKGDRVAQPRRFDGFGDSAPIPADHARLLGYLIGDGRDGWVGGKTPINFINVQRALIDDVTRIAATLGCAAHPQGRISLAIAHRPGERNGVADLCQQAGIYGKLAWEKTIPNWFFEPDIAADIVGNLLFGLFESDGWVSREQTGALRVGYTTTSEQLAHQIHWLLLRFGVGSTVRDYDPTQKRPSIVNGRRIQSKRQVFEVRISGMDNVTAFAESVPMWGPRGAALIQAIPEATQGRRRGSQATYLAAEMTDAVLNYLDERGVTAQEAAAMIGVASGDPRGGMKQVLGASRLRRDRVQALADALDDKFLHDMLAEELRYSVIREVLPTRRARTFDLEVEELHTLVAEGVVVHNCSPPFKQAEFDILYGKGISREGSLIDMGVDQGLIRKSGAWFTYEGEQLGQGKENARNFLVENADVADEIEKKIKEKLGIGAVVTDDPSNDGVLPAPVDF

Genome polyprotein = Genome polyprotein (dengue virus type 2, UniProt P29990); test: flavivirus cap methylation enzyme inhibition – biochemical, confirmation dose response, primary screen (AID 588689); format: functional
Sequence of Genome polyprotein (P29990 2492-3391 limits assumed): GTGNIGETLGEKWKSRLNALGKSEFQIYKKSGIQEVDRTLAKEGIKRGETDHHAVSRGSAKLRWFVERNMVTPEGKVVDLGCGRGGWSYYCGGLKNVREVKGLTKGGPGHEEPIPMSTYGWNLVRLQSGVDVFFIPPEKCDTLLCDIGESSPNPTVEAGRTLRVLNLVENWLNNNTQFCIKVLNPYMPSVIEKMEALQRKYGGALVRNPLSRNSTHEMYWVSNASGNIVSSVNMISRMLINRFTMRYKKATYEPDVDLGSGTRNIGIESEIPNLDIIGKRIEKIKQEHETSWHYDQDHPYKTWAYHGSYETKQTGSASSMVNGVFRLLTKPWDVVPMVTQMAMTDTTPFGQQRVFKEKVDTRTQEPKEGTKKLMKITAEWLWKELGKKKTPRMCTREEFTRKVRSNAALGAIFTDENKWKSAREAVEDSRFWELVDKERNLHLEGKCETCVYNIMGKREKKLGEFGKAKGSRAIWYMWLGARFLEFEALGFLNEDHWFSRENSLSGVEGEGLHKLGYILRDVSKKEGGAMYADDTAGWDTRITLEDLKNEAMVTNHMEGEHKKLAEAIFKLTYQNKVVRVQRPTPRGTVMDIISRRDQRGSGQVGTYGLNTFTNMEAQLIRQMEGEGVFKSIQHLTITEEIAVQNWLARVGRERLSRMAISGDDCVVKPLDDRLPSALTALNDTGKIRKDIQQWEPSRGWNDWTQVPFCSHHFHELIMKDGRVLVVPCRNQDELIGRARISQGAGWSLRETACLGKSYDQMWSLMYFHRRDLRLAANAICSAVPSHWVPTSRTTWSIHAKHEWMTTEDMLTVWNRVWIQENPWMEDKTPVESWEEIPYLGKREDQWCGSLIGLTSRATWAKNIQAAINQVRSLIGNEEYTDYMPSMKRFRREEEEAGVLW

[14] = target: T4, Replicative DNA helicase DnaB (Mycobacterium tuberculosis, UniProt P9WMR3); test: DnaB intein splicing inhibitors, dose response, biochemical, cell-free fluorescence (AID 449749); format: functional
T4 sequence (P9WMR3 whole entry): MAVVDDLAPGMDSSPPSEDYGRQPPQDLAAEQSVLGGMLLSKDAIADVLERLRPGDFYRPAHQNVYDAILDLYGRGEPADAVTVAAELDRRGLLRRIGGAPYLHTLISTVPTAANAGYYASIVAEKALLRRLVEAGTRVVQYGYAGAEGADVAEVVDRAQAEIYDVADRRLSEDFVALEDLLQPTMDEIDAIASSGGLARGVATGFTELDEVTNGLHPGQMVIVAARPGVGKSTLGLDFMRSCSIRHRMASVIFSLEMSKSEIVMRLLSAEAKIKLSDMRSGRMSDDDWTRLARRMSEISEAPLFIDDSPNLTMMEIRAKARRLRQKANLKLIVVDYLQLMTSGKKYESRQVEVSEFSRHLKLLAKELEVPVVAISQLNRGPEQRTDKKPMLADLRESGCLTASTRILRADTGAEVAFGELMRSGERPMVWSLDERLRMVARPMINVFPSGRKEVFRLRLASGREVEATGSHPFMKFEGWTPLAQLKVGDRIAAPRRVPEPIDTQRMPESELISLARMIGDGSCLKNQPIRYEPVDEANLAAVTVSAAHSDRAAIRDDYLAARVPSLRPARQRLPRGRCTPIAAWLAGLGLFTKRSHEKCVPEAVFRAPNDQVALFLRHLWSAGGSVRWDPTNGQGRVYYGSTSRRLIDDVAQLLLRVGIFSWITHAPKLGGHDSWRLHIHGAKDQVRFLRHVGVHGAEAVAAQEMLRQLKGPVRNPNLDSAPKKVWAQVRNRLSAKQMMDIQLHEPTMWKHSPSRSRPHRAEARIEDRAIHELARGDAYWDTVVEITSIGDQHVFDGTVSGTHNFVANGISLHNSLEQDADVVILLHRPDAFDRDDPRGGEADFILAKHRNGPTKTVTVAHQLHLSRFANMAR

[15] = target: Hepatocyte nuclear factor 4-alpha (Homo sapiens, UniProt P41235); format: functional, cell-based;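 also: biochemical luminescence-based dose-response counterscreen measuring inhibition of HNF4 dimerization, run alongside a screen for blockers of ABHD5–perilipin-5 interaction; split luciferase complementation of HNF4 fusion proteins in cell lysate measuring dimerization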
Sequence of Hepatocyte nuclear factor 4-alpha (P41235 whole entry, the tested form may be a part): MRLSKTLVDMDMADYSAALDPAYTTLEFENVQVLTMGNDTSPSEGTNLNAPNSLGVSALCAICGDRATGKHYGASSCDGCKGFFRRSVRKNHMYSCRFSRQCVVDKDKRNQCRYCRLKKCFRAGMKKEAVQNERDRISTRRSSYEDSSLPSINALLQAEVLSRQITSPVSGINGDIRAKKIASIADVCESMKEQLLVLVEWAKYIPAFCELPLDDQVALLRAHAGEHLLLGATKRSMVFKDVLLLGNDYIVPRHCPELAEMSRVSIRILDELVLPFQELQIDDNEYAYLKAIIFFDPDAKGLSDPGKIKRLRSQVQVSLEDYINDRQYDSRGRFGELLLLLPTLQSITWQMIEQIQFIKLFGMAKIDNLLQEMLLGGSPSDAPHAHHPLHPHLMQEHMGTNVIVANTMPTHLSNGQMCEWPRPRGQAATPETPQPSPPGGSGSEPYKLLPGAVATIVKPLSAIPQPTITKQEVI

[16] = nonselective StAR promoter luciferase inhibitors – cell-based, luminescence, luciferase reporter, counter-screen for LRH-1 inverse agonist project, dose response (AID 651969); format: functional
Steroidogenic factor 1 = Steroidogenic factor 1 (Homo sapiens, UniProt Q13285); test: Counterscreen for inverse agonists of the liver receptor homolog-1 (LRH-1; NR5A2): Luminescence-based cell-based high throughput dose response assay to identify inverse agonists of the Steroidogenic Factor 1 Nuclear Receptor (SF1; NR5A1).; format: functional
[17] = target: Nuclear receptor subfamily 5 group A member 2 (Homo sapiens, UniProt O00482); format: functional, cell-based;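 also: HEK293T cells transfected with LRH-1 and a StAR promoter luciferase reporter; potency for inhibitors that lower LRH-1 driven reporter light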
Sequence of Nuclear receptor subfamily 5 group A member 2 (O00482 whole entry): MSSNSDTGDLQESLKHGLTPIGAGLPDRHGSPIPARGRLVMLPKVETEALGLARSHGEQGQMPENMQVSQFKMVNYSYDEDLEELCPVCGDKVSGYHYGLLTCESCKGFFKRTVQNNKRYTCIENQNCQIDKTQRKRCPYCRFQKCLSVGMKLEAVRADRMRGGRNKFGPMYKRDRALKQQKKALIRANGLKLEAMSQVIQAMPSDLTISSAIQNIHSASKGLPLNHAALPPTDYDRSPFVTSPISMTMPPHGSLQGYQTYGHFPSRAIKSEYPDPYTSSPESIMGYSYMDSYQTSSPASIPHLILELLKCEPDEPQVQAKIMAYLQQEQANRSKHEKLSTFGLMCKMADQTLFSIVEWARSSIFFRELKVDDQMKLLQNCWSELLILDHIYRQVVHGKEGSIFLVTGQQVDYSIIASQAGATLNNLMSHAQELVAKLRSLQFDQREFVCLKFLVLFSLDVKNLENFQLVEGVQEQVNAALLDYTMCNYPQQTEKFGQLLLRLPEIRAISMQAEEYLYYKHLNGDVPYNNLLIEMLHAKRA

[18] = target: T5, Polyadenylate-binding protein 1 (Homo sapiens, UniProt P11940); test: MLLE binding blockers, Cy5 peptide tracer – biochemical, fluorescence polarization, Cy5-PAM2 peptide, secondary, miRNA deadenylation inhibitor project, dose response (AID 602260); format: functional; settings: read-out: IC50_Mean
T5 sequence (P11940 whole entry, the tested form may be a part): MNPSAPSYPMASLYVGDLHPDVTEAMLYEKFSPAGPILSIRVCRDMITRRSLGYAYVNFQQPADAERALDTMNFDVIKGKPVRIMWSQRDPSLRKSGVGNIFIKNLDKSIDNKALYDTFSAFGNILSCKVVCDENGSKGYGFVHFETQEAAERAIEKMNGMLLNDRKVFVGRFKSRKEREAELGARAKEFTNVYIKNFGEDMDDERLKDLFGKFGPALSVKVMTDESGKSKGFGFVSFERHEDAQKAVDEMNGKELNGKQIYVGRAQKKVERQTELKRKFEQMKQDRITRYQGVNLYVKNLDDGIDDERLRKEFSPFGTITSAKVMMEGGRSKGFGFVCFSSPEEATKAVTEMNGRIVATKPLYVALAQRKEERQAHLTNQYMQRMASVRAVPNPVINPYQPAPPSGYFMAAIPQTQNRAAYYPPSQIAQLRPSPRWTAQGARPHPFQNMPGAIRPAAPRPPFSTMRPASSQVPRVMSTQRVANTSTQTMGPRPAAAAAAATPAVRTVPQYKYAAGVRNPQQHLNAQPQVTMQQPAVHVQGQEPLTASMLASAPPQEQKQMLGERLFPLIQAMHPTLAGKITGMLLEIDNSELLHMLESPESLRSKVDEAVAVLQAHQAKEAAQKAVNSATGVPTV

[19] = target: T6, Sentrin-specific protease 1 (Homo sapiens, UniProt Q9P0U3); test: Dose response confirmation of small molecule inhibitors of the catalytic domain of the SUMO protease, SENP1 in a FRET assay.; format: functional; settings: read-out: IC50_Mean
T6 sequence (Q9P0U3 whole entry, the tested form may be a part): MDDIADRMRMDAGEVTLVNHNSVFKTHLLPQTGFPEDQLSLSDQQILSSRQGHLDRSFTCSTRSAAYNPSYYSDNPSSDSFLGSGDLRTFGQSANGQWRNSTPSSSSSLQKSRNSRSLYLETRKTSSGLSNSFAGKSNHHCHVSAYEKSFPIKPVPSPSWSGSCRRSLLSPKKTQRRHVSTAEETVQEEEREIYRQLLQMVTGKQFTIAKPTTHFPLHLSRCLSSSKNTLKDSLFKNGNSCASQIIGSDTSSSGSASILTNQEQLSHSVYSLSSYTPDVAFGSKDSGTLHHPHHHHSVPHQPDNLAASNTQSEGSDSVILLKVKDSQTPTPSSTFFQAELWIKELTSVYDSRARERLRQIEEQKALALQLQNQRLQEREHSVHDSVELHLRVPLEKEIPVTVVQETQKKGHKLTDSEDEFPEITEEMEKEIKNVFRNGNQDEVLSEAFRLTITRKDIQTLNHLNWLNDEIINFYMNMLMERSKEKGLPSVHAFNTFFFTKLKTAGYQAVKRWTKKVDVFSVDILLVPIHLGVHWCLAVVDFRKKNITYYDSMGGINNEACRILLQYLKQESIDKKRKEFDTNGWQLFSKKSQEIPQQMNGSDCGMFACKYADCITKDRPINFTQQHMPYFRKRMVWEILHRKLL

[20] = target: T6, Sentrin-specific protease 1; test: SENP1 catalytic domain blockers, concentration series – biochemical, kinetic FRET, dose response (AID 651697); format: functional; settings: read-out: IC50_Mean
[21] = target: T5, Polyadenylate-binding protein 1; test: MLLE domain peptide-binding blockers, IC50 – biochemical, fluorescence polarization, FITC-PAM2 peptide, dose response (AID 602259); format: functional; settings: read-out: IC50_Mean
[22] = inhibition of ARNT PAS-B/TACC3 complex formation – biochemical, AlphaScreen, cherry-picked samples, confirmation (AID 651703); format: functional, Homo sapiens;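 also: His-tagged ARNT PAS-B domain paired with GST-TACC3 E629A dimer coactivator fragment; potency of inhibitors that break up the complex and lower AlphaScreen signal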
[23] = target: T7, Aryl hydrocarbon receptor (Homo sapiens, UniProt P35869); settings: Potency;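 also: confirmatory quantitative high-throughput screen measuring activation of the AhR signaling pathway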
T7 sequence (P35869 whole entry): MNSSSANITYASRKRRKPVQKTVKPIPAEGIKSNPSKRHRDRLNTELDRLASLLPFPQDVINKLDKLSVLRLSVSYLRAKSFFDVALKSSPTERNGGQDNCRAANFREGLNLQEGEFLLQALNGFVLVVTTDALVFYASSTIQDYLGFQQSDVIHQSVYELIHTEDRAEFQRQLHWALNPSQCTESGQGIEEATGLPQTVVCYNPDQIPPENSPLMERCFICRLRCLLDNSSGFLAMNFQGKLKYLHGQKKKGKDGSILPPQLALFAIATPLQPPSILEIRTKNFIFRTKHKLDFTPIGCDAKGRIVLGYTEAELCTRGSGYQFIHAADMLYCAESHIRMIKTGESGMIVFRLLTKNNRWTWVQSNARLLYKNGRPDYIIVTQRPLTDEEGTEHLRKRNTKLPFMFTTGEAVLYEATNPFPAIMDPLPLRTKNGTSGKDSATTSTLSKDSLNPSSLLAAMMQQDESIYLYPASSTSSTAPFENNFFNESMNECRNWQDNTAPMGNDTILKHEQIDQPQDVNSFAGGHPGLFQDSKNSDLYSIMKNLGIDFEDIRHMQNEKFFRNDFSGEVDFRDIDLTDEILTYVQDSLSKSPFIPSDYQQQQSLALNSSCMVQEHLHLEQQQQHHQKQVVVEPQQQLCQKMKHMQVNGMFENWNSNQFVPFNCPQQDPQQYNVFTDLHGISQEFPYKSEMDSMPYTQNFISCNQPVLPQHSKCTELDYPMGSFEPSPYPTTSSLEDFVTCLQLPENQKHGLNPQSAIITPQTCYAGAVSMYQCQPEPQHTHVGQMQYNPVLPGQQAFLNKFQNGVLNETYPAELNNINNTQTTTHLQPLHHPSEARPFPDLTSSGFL

T1 sequence (P65502 whole entry): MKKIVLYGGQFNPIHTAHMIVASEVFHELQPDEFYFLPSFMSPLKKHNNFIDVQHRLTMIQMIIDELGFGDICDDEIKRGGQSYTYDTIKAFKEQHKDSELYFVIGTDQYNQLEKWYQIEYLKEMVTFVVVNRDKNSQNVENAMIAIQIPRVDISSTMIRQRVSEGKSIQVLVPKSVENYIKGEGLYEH

In the case of `O=C(Nc1ccc(S(=O)(=O)Nc2nccs2)cc1)/C(=C/c1ccccc1Cl)NC(=O)c1ccccc1`, the IC50 [1] was 6.5 µM (active), the IC50 [2] was 2.73 µM (active) and the IC50 [3] was 22.8 µM (active).
For `CCOc1ccc(CCNC(=O)CS(=O)(=O)Cc2nc(-c3ccc(OC)cc3)oc2C)cc1`, the IC50 [4] was > 80 µM (inactive), the IC50 [5] was 26.8 µM (inactive) and the IC50 [6] was 9.1 µM (active).
In the case of `Cn1c(-c2ccccc2)cnc1N`, the AC50 (Escherichia coli) was 22.7 µM (active), the AC50 [7] was 102 µM (active) and the AC50 (Cytochrome P450 3A4) was 28.2 µM (inconclusive).
In the case of `Nc1ncc2c(n1)CC(c1ccco1)CC2=O` (stereo not given), the IC50 [8] was 40.5 µM (inactive) and the IC50 [9] was 56.8 µM (inactive).
In the case of `CC(=O)c1ccc(N2CCN(C(=O)Cc3ccccc3)CC2)c(F)c1`, the AC50 [10] was 4.97 µM (active).
With `CSc1nnc(NC(=O)c2nc(S(=O)(=O)Cc3ccccc3)ncc2Cl)s1` the AC50 [11] was 1.35 µM (active), the AC50 [12] was 67.4 µM (active) and the CC50 (Vero) was 31.1 µM (active). For the same compound, the AC50 [13] was 14.5 µM (active), the EC50 (Protein RecA) was 4.73 µM (active) and the IC50 (Genome polyprotein) was 50.6 µM (active). For the same compound, the AC50 [14] was 5.23 µM (active) and the IC50 [15] was 5.52 µM (active).
With `NC(=O)C1CCN(C(=O)COc2ccc3c4c(c(=O)oc3c2)CCC4)CC1` the IC50 [16] was 35.9 µM (inactive), the IC50 (Steroidogenic factor 1) was 35.9 µM (inactive) and the IC50 [17] was 35.9 µM (inactive).
With `Nc1nc(O)cc(N=Nc2ccc(O)cc2)n1` the IC50 [18] was > 66 µM (inactive), the IC50 [19] was 15.4 µM (active) and the IC50 [20] was 11.6 µM (active). The IC50 [21] was 43.8 µM (inactive) and the IC50 (Genome polyprotein) was 26.7 µM (active).
For `C/C(CC(=O)NCc1ccccc1Cl)=N/NC(=O)c1ccccn1`, the AC50 [22] was 77.8 µM (active).
With `CCOP(=S)(OCC)Oc1ncn(-c2ccccc2)n1` [TRIAZOPHOS] the AC50 [23] was 11.2 µM (inconclusive).
